According to ChEMBL document CHEMBL4483862, “Open-source discovery of chemical leads for next-generation chemoprotective antimalarials” (2018):

System: Plasmodium berghei
Assay: Luciferase/luciferin-expressing antifolate-resistant parasites were used to infect a culture of HepG2 cells that were pre-incubated with compounds. Infected hepatocytes emit light due to the luciferase reaction. Assay results are presented as the percent inhibition of light emission compared to control. […]
Type: functional
Conditions: sporozoite; for IC90: read-out: LUCIFERASE INFECTION ASSAY - IC90
[1] = read-out: LUCIFERASE INFECTION ASSAY - IC50

| SMILES | IC90 [µM] | IC50 [1] [µM] | other results |
| --- | --- | --- | --- |
| OC(COc1ccc(OC(F)(F)F)cc1)CN1CCN(c2nc3ccc(Cl)cc3s2)CC1 (stereo not drawn) | > 6.76 | – | IC50 (HEPG2TOX_HILL_SLOPE 3.53, HEPG2TOX_R_SQUARED 0.823, PBLUC_HILL_SLOPE 2.94, PBLUC_R_SQUARED 0.35, read-out: LUCIFERASE INFECTION ASSAY - IC50): 4.19 µM |
| NC(Cc1ccc(F)cc1)c1csc(Nc2nncc3ccccc23)n1 (stereo not drawn) | > 9.03 | > 9.03 | – |
| Cn1ccc2cc(-c3cnc4cnc(-c5ccc6c(c5)OCO6)cn34)ccc21 | 0.0413 | – | IC50 (HEPG2TOX_HILL_SLOPE 1.26, HEPG2TOX_R_SQUARED 0.912, PBLUC_HILL_SLOPE 10.9, PBLUC_R_SQUARED 0.837, read-out: LUCIFERASE INFECTION ASSAY - IC50): 0.0338 µM |
| Cc1cc(C2(c3cc(C)n(-c4ccccc4)c3C)CCC(C)CC2)c(C)n1-c1ccccc1 | > 10 | – | IC50 (FFLUC_HILL_SLOPE 2.77, FFLUC_R_SQUARED 0.531, read-out: LUCIFERASE INFECTION ASSAY - IC50): > 10 µM |
| O=C(CN1CCCCC1)Nc1c(F)cccc1F | > 13 | > 13 | – |
| O=C(Nc1ccc(OC(F)F)c(Cc2ccccc2)c1)c1ccc(-n2ccnc2)nc1 | > 10 | – | IC50 (PBLUC_HILL_SLOPE 6.37, PBLUC_R_SQUARED 0.721, read-out: LUCIFERASE INFECTION ASSAY - IC50): 8.94 µM |
| Cc1ccc2cc(C)c(N/N=C/c3c(C)nn(-c4ccccc4)c3Cl)nc2c1 | 9.17 | – | IC50 (PBLUC_HILL_SLOPE 2.56, PBLUC_R_SQUARED 0.451, read-out: LUCIFERASE INFECTION ASSAY - IC50): 3.89 µM |
| CCOC(=O)c1sc2nc(C)nc(N3CC=C(c4c[nH]c5ncccc45)CC3)c2c1C | > 10 | > 10 | – |
| CN(Cc1c(F)cccc1Cl)C(=O)COc1ccc2[nH]c3ccccc3c(=O)c2c1 | 1.11 | – | IC50 (PBLUC_HILL_SLOPE 2.98, PBLUC_R_SQUARED 0.795, read-out: LUCIFERASE INFECTION ASSAY - IC50): 0.53 µM |
| FC(F)(F)c1cc(/C=N/Nc2c(Cl)cc(C(F)(F)F)cc2Cl)cc(C(F)(F)F)c1 | 6.93 | – | IC50 (HEPG2TOX_HILL_SLOPE 9.76, HEPG2TOX_R_SQUARED 0.862, PBLUC_HILL_SLOPE 9.4, PBLUC_R_SQUARED 0.388, read-out: LUCIFERASE INFECTION ASSAY - IC50): 5.49 µM |
| Cc1cc2nnc(SC(C)C(=O)Nc3ccc([N+](=O)[O-])cc3C(F)(F)F)n2c2ccccc12 (stereo not drawn) | > 10 | > 10 | – |
| Cc1nc(C(C)(C)C)nc2sc(C(=O)NNC(=O)c3ccccn3)c(C)c12 | > 10 | 8.36 | – |
| Cc1ccc(C)c(OC2CCN(C(=O)Nc3cc(C)on3)CC2)c1 | 1.37 | – | IC50 (HEPG2TOX_HILL_SLOPE 1.23, HEPG2TOX_R_SQUARED 0.839, PBLUC_HILL_SLOPE 15.3, PBLUC_R_SQUARED 0.595, read-out: LUCIFERASE INFECTION ASSAY - IC50): 1.19 µM |
| Cc1cc(=O)n2nc(-c3ccccc3)cc2n1CC(=O)Nc1cc(Cl)ccc1N1CCCCC1 | 4.37 | 3.43 | – |
| Cc1ccc(-c2cnc3c(Nc4ccc(NS(=O)(=O)c5ccc(C)cc5)cc4)nccn23)cc1 | > 7.03 | – | IC50 (PBLUC_HILL_SLOPE 0.774, PBLUC_R_SQUARED 0.875, read-out: LUCIFERASE INFECTION ASSAY - IC50): 1.09 µM |
| COc1cc2c(cc1NC(=O)C(C)NCC(c1ccccc1)N(C)C)oc1ccccc12 (stereo not drawn) | > 10 | > 10 | – |
| Cc1ccc(C(CN2CCOCC2)Nc2nc(C(F)(F)F)nc3ccccc23)cc1 (stereo not drawn) | 3.63 | – | IC50 (FFLUC_HILL_SLOPE 0.43, FFLUC_R_SQUARED 0.0433, PBLUC_HILL_SLOPE 12.3, PBLUC_R_SQUARED 0.751, read-out: LUCIFERASE INFECTION ASSAY - IC50): 3.04 µM |
| C=C(c1c[nH]c2ccccc12)c1c[nH]c2ccccc12 | > 10 | – | IC50 (PBLUC_HILL_SLOPE 132, PBLUC_R_SQUARED 0.705, read-out: LUCIFERASE INFECTION ASSAY - IC50): 9.85 µM |
| CN1CCN(c2ccccc2/C=N\Nc2cc(Cl)ccc2Cl)CC1 | > 9.08 | – | IC50 (PBLUC_HILL_SLOPE 2.04, PBLUC_R_SQUARED 0.6, read-out: LUCIFERASE INFECTION ASSAY - IC50): 3.92 µM |
| O=C1C=C(c2ccccc2)C(=O)N1c1cccc(Cl)c1 | > 11.6 | – | IC50 (FFLUC_HILL_SLOPE 29.2, FFLUC_R_SQUARED 0.289, PBLUC_HILL_SLOPE 11, PBLUC_R_SQUARED 0.329, read-out: LUCIFERASE INFECTION ASSAY - IC50): 11.3 µM |
| O=C(Nc1nc(-c2ccc3c(c2)CCCC3)cs1)c1cnccn1 | > 10 | > 10 | – |
| COCOc1ccc(-c2cc(-c3cccc4cccnc34)cnc2N)cc1 | > 9.23 | – | IC50 (HEPG2TOX_HILL_SLOPE 2.28, HEPG2TOX_R_SQUARED 0.55, PBLUC_HILL_SLOPE 1.41, PBLUC_R_SQUARED 0.714, read-out: LUCIFERASE INFECTION ASSAY - IC50): 3.26 µM |

| SMILES | IC90 [µM] | IC50 [1] [µM] | other results |
| --- | --- | --- | --- |
| FC(F)(F)c1cccnc1N1CCN(c2ccc(NC(=S)NCc3ccccc3)cn2)CC1 | > 6.98 | > 6.98 | – |
| N#C/C(=N/Nc1ccc(OC(F)(F)F)cc1)C(N)=S | 4.35 | – | IC50 (HEPG2TOX_HILL_SLOPE 2.59, HEPG2TOX_R_SQUARED 0.943, PBLUC_HILL_SLOPE 11.1, PBLUC_R_SQUARED 0.624, read-out: LUCIFERASE INFECTION ASSAY - IC50): 3.57 µM |
| CCn1nc(C)c(Br)c1C(=O)Sc1ccccc1Cl | > 9.17 | – | IC50 (FFLUC_HILL_SLOPE 17.2, FFLUC_R_SQUARED 0.444, read-out: LUCIFERASE INFECTION ASSAY - IC50): > 9.17 µM |
| COc1cc2c(cc1OC)C(c1cccs1)N(Cc1cc(-c3ccco3)on1)CC2 (stereo not drawn) | > 10 | – | IC50 (HEPG2TOX_HILL_SLOPE 7.23, HEPG2TOX_R_SQUARED 0.683, PBLUC_HILL_SLOPE 1.88, PBLUC_R_SQUARED 0.215, read-out: LUCIFERASE INFECTION ASSAY - IC50): 9.72 µM |
| O/N=C(\c1ccc(Cl)cc1)c1cc2ccccc2o1 | > 12.1 | – | IC50 (PBLUC_HILL_SLOPE 1.16, PBLUC_R_SQUARED 0.26, read-out: LUCIFERASE INFECTION ASSAY - IC50): 6.29 µM |
| FC(F)(F)Oc1cccc(-c2nc3ccnc(Nc4ccccc4)c3[nH]2)c1 | > 10 | – | IC50 (HEPG2TOX_HILL_SLOPE 7.94, HEPG2TOX_R_SQUARED 0.491, PBLUC_HILL_SLOPE 12.6, PBLUC_R_SQUARED 0.533, read-out: LUCIFERASE INFECTION ASSAY - IC50): 8.84 µM |
| NC1=CC(=O)c2ccccc2C1=O | > 19.1 | – | IC50 (PBLUC_HILL_SLOPE 2.49, PBLUC_R_SQUARED 0.187, read-out: LUCIFERASE INFECTION ASSAY - IC50): 12 µM |
| Cc1ccc(C(=O)NN(C)c2nc3ccccc3nc2C(F)(F)F)cc1 | 8.54 | – | IC50 (HEPG2TOX_HILL_SLOPE 2.8, HEPG2TOX_R_SQUARED 0.955, PBLUC_HILL_SLOPE 3.11, PBLUC_R_SQUARED 0.656, read-out: LUCIFERASE INFECTION ASSAY - IC50): 4.21 µM |
| Cc1nn(-c2ccccc2)c(Oc2ccccc2)c1/C=C1\C(=O)Nc2ccccc21 | 1.95 | – | IC50 (HEPG2TOX_HILL_SLOPE 0.509, HEPG2TOX_R_SQUARED 0.727, PBLUC_HILL_SLOPE 1.23, PBLUC_R_SQUARED 0.54, read-out: LUCIFERASE INFECTION ASSAY - IC50): 0.328 µM |
| O=C(NC12CC3CC(CC(C3)C1)C2)c1ccc(=O)n(Cc2ccccc2)n1 | > 10 | – | IC50 (PBLUC_HILL_SLOPE 1.2, PBLUC_R_SQUARED 0.803, read-out: LUCIFERASE INFECTION ASSAY - IC50): 5.96 µM |
| CC(C)CC(N)c1csc(NC(=O)Nc2ccc(F)c(Cl)c2)n1 (stereo not drawn) | > 9.25 | > 9.25 | – |
| COc1ccc(-c2cnc3cnc(-c4ccc5c(c4)OCO5)cn23)cc1 | 4.64 | 1.78 | – |
| CN(Cc1nc2ccccc2s1)Cn1cnc2c(=O)n(C)c(=O)n(C)c21 | > 10 | – | IC50 (PBLUC_HILL_SLOPE 0.862, PBLUC_R_SQUARED 0.121, read-out: LUCIFERASE INFECTION ASSAY - IC50): 9.69 µM |
| CCCCCCCCNC(=O)/C(C#N)=C/c1ccc(C)cc1C | > 10 | > 10 | – |
| O=C1OC(c2ccccc2)=N/C1=C\c1ccc([N+](=O)[O-])s1 | > 11 | > 11 | – |
| Cc1cccc(NC(=O)c2ccc(Cl)c(S(=O)(=O)N3CCc4ccccc43)c2)n1 | > 10 | > 10 | – |
| CN(C)C(=O)c1cccc(-c2cnc3c(NC=O)cc(-c4ccsc4)cn23)c1 | > 8.45 | > 8.45 | – |
| CC(C)C(N)c1csc(NC(=O)c2cc(C(C)(C)C)nn2Cc2ccccc2)n1 (stereo not drawn) | 3.46 | – | IC50 (PBLUC_HILL_SLOPE 594, PBLUC_R_SQUARED 0.291, read-out: LUCIFERASE INFECTION ASSAY - IC50): 3.45 µM |
| O=C(/C=C/c1ccccc1)c1ccc(-n2nncc2-c2ccccc2)cc1 | > 10 | – | IC50 (HEPG2TOX_HILL_SLOPE 6.47, HEPG2TOX_R_SQUARED 0.294, read-out: LUCIFERASE INFECTION ASSAY - IC50): > 10 µM |
| CSc1nccc(-c2ccc3c(c2)CCC(C)(C)O3)n1 | 11 | – | IC50 (PBLUC_HILL_SLOPE 0.747, PBLUC_R_SQUARED 0.886, read-out: LUCIFERASE INFECTION ASSAY - IC50): 0.583 µM |
| Cc1nn(-c2ccccc2Cl)c2sc(C(=O)NC3CCN(C(C)C)CC3)cc12 | > 10 | – | IC50 (PBLUC_HILL_SLOPE 2.83, PBLUC_R_SQUARED 0.189, read-out: LUCIFERASE INFECTION ASSAY - IC50): 5.04 µM |
| Cc1ccc(NC2c3ccccc3-c3ccccc32)cc1 | > 10 | – | IC50 (PBLUC_HILL_SLOPE 2, PBLUC_R_SQUARED 0.71, read-out: LUCIFERASE INFECTION ASSAY - IC50): 6.95 µM |
